Test results as given in ChEMBL document CHEMBL3751843, “Development of glycine-α-methyl-proline-containing tripeptides with neuroprotective properties” (Eur J Med Chem, 2016).
Calls of active or inactive are those of the source. No cut-off for these calls is given here. Where a SMILES comes first, the peptide text is derived from it. [ ]: non-standard residue; d: D form. αMeP = C[C@@]1(C(=O)O)CCCN1

Legend:
SH-SY5Y [1] = assay: Neuroprotective against IFNgamma/LPS stimulated THP1 condition medium-induced neurotoxicity in human SH-SY5Y cells assessed as increase in cytoplasmic IkappaBalpha level pretreated for 1 hr followed by addition of THP1 conditioned medium by western blot analysis; format: functional, cell-based
SH-SY5Y [2] = assay: Neuroprotective against IFNgamma/LPS stimulated THP1 condition medium-induced neurotoxicity in human SH-SY5Y cells assessed as NO production per 10^6 cells at 10 nM for 1 hr followed by addition of THP1 conditioned medium by griess assay (reference value: 3.75 +/- 0.14 micromol/L); format: functional
SH-SY5Y [3] = assay: Neuroprotective against IFNgamma/LPS stimulated THP1 condition medium-induced neurotoxicity in human SH-SY5Y cells assessed as NO production per 10^6 cells at 1 uM for 1 hr followed by addition of THP1 conditioned medium by griess assay (reference value: 3.75 +/- 0.14 micromol/L); format: functional
SH-SY5Y [4] = assay: Neuroprotective against IFNgamma/LPS stimulated THP1 condition medium-induced neurotoxicity in human SH-SY5Y cells assessed as NO production per 10^6 cells at 10 uM for 1 hr followed by addition of THP1 conditioned medium by griess assay (reference value: 3.75 +/- 0.14 micromol/L); format: functional
[5] = Metabolic stability in human plasma assessed as half life by HPLC analysis; format: ADME, cell-free
SH-SY5Y [6] = assay: Neuroprotective against IFNgamma/LPS stimulated THP1 condition medium-induced neurotoxicity in human SH-SY5Y cells assessed as NO production per 10^6 cells at 100 uM for 1 hr followed by addition of THP1 conditioned medium by griess assay (reference value: 3.75 +/- 0.14 micromol/L); format: functional
SH-SY5Y [7] = assay: Neuroprotective against IFNgamma/LPS stimulated THP1 condition medium-induced neurotoxicity in human SH-SY5Y cells assessed as NO production per 10^6 cells at 100 nM for 1 hr followed by addition of THP1 conditioned medium by griess assay (reference value: 3.75 +/- 0.14 micromol/L); format: functional
SH-SY5Y [8] = assay: Cytotoxicity against human SH-SY5Y cells at 0.1 to 100 uM after 24 hrs by MTT assay; format: cell-based
SH-SY5Y [9] = assay: Neuroprotective against IFNgamma/LPS stimulated THP1 condition medium-induced neurotoxicity in human SH-SY5Y cells assessed as increase in nNOS expression at 100 uM pretreated for 1 hr followed by addition of THP1 conditioned medium by western blot analysis; format: functional, cell-based
SH-SY5Y [10] = assay: Neuroprotective activity against human SH-SY5Y cells assessed as inhibition of IFNgamma/LPS stimulated THP1 condition medium-induced cytotoxicity measured as cell viability at 100 uM for 1 hr followed by addition of THP1 conditioned medium for 24 hrs by LDH assay relative to control; format: functional
SH-SY5Y [11] = assay: Neuroprotective against IFNgamma/LPS stimulated THP1 condition medium-induced neurotoxicity in human SH-SY5Y cells assessed as decrease in iNOS expression at 100 uM pretreated for 1 hr followed by addition of THP1 conditioned medium by western blot analysis; format: functional, cell-based
SH-SY5Y [12] = assay: Effect on NO production in human SH-SY5Y cells by greiss assay; format: functional, cell-based
SH-SY5Y [13] = assay: Neuroprotective activity against human SH-SY5Y cells assessed as inhibition of IFNgamma/LPS stimulated THP1 condition medium-induced cytotoxicity measured as cell viability at 100 uM for 1 hr followed by addition of THP1 conditioned medium for 24 hrs by LDH assay in presence of 1 uM dexamethasone; format: functional, cell-based
SH-SY5Y [14] = assay: Neuroprotective against IFNgamma/LPS stimulated THP1 condition medium-induced neurotoxicity in human SH-SY5Y cells assessed as decrease in apoptosis at 100 uM for 1 hr followed by addition of THP1 conditioned medium by annexinV/PI staining based flow cytometry; format: functional, cell-based
SH-SY5Y [15] = assay: Neuroprotective against IFNgamma/LPS stimulated THP1 condition medium-induced neurotoxicity in human SH-SY5Y cells assessed as reduced iNOS activity at 100 uM pretreated for 1 hr followed by addition of THP1 conditioned medium; format: functional, cell-based
SH-SY5Y [16] = assay: Neuroprotective against IFNgamma/LPS stimulated THP1 condition medium-induced neurotoxicity in human SH-SY5Y cells assessed as increase in cytoplasmic IkappaBalpha level at 100 uM pretreated for 1 hr followed by addition of THP1 conditioned medium by western blot analysis; format: functional, cell-based
SH-SY5Y [17] = assay: Neuroprotective against IFNgamma/LPS stimulated THP1 condition medium-induced neurotoxicity in human SH-SY5Y cells assessed as increase in nNOS activity at 100 uM pretreated for 1 hr followed by addition of THP1 conditioned medium; format: functional, cell-based
SH-SY5Y [18] = assay: Neuroprotective against IFNgamma/LPS stimulated THP1 condition medium-induced neurotoxicity in human SH-SY5Y cells assessed as inhibition of RelA/p65 nuclear translocation at 100 uM pretreated for 1 hr followed by addition of THP1 conditioned medium by western blot analysis; format: functional, cell-based

Row | Structure (SMILES) | Activity (SH-SY5Y [1]) | Activity (SH-SY5Y [2]) [µmol/L] | Activity (SH-SY5Y [3]) [µmol/L] | Activity (SH-SY5Y [4]) [µmol/L] | half-life [5] [h] | Activity (SH-SY5Y [6]) [µmol/L] | Activity (SH-SY5Y [7]) [µmol/L] | Activity (SH-SY5Y [8]) | Activity (SH-SY5Y [9]) | Activity (SH-SY5Y [10]) [%] | inhibition (SH-SY5Y [11]) | Activity (SH-SY5Y [12]) | Activity (SH-SY5Y [13]) | inhibition (SH-SY5Y [14]) | inhibition (SH-SY5Y [15]) | Activity (SH-SY5Y [16]) | Activity (SH-SY5Y [17]) | inhibition (SH-SY5Y [18])
1 | CN1C(=O)[C@]23CC4=CC=C[C@H](O)[C@H]4N2C(=O)[C@@]1(CO)SS3 | Active | – | – | – | – | – | – | – | – | – | – | – | – | – | – | – | – | –
2 | N=C(N)NCCC[C@H](NC(=O)[C@@H]1CCCN1C(=O)CN)C(=O)O (H-Gly-Pro-Arg-OH) | – | 3.72 | 3.68 | 3.05 | 1.58 | 2.64 | 3.74 | – | – | – | – | – | – | – | – | – | – | –
3 | C[C@@]1(C(=O)N[C@@H](CCCNC(=N)N)C(=O)O)CCCN1C(=O)CN (H-Gly-[αMeP]-Arg-OH) | – | 3.78 | 3.72 | 3.57 | 132 | 2.92 | 3.71 | Non-toxic | Active | 70 | Active | inactive | Active | Active | Active | – | – | –
4 | C[C@@]1(C(=O)N[C@@H](Cc2cnc[nH]2)C(=O)O)CCCN1C(=O)CN (H-Gly-[αMeP]-His-OH) | – | 3.81 | 3.74 | 2.96 | 118 | 2.38 | 3.76 | Non-toxic | Active | 70 | Active | inactive | Active | Active | Active | Active | Active | Active
5 | C[C@@]1(C(=O)N[C@@H](CCCCN)C(=O)O)CCCN1C(=O)CN (H-Gly-[αMeP]-Lys-OH) | – | 3.7 | 3.74 | 2.98 | 51.6 | 2.65 | 3.68 | Non-toxic | Active | 70 | Active | inactive | Active | Active | Active | – | – | –
